The record followed here is article PMC9060145 (Skin Health and Disease, 2021).

Data set [1] concerns the target T1, CYP2C8 (Homo sapiens, UniProt P10632).
T1 sequence (P10632 1-490): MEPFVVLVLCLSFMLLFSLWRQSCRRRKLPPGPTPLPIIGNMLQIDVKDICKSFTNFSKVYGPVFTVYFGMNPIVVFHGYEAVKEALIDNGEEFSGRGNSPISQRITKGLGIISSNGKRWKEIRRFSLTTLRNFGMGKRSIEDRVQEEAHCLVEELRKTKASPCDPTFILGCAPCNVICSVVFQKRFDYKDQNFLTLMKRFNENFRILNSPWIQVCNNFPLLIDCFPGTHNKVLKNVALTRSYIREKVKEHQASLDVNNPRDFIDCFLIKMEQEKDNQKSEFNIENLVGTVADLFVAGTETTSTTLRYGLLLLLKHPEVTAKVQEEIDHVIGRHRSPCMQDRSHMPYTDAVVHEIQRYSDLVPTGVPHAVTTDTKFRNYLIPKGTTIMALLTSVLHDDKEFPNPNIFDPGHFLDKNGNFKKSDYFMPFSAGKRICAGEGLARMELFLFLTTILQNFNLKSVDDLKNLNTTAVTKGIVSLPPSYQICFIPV
Put plainly: CYP450 inhibition assay, human liver microsomes. Also on record: from tissue; host or cells: human liver microsomes (per the earlier reading and the cited method). The conditions noted are these: substrate paclitaxel. It counts as biochemical. (In general: Liver microsomes are a subcellular fraction often used to study metabolism.)

For data set [2], the target named is T1, CYP2C8. Put plainly: Qualitative CYP2C8 screening, Vivid CYP2C8 Green kit, fluorimetry. It counts as biochemical. Also on record: purchased Life Technologies; host or cells: Baculosomes. Conditions: recombinant CYP2C8 Baculosomes, probe Vivid DBOMF, 1 µM (1000 nM) compound, substrate DBOMF. How it is done: CYP450 inhibition assays (excluding CYP19 and 1 µM CYP2C8) were performed as previously described.[31] Substrate metabolite formation was measured by HPLC‐MS/MS. Percent of control activity was determined by comparing metabolite peak areas with and without test compound. Qualitative screening of CYP2C8 (1 µM) and CYP19 is described in detail in Supporting Information. Reference compound IC50 values were determined by non‐linear regression analysis using Hill equation curve fitting.
A kinetic reaction was carried out for CYP2C8 screening in triplicate according to the Vivid? CYP450 Screening Kit manual protocol (MAN0003095). Briefly, a master pre-mix composed of CYP2C8 Baculosomes®, regeneration system of human P450 reductase/human cytochrome b5, and reaction buffer was prepared before adding 50 µL to each well in a black 96-well plate. Test compounds, positive inhibition control, and solvent controls were prepared as a 2.5X concentration with DMSO in reaction buffer of which 40 µL was dispensed into the 96-well plate. […] The test samples were pre-incubated at 37 °C for 15 min in the fluorescent microplate reader before adding a 10 µL mixture of substrate and NADP^+. Immediately, the plate was read at 2 min intervals over a 30 min time period at 37 °C. The raw data in relative fluorescent units (RFU) was analyzed according to the kinetic assay mode as outlined in the published protocol.

By inhibition is commonly meant the percentage by which the read-out fell short of the control. Turning to `CC(C)(O)c1ccccc1CC[C@@H](SCC1(CC(=O)O)CC1)c1cccc(/C=C/c2ccc3ccc(Cl)cc3n2)c1` [montelukast], the “nH (hill coefficient)” value at CYP2C8 [1] is 0.6. At CYP2C8 [2], the inhibition at 30 min, 1 µM was found to be 100%.
